One may read the IC50 as the concentration at which inhibition is half-maximal.

Molecules are shown by their SMILES.

T1 sequence (Q8N884 161-522): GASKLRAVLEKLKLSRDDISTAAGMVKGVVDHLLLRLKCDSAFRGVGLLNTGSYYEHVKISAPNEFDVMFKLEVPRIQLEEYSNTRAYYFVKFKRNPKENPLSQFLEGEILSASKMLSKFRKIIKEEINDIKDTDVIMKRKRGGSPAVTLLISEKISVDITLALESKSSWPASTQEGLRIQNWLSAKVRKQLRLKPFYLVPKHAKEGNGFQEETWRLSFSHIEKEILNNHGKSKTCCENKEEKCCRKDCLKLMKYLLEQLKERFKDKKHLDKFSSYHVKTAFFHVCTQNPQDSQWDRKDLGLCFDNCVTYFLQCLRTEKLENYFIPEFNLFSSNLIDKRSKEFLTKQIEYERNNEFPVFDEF

This test concerns the target T1, human cGAS (residues 161-522) (Homo sapiens, UniProt Q8N884).
T1 construct: Recombinantly expressed purified human cGAS (residues 161-522) was used at 25 nM; made in house
Description: cGAS Activity Assay - Malachite Green (coupled enzymatic assay, phosphate detection). It counts as biochemical. The following applies: recombinant human cGAS 25 nM, 80 μM ATP, 80 μM GTP, 100 nM ISD, 4 hour at RT. The procedure:
cGAS Activity Assay—Malachite Green
Compounds were tested for cGAS inhibition in a coupled enzymatic assay based on Phosphate detection by Malachite Green. Final assay conditions were 20 mM TRIS pH 7.5 (Applichem), 5 mM MgCl2 (Sigma) and 0.01% BSA (Sigma) supplemented with 80 μM ATP (Sigma), 80 μM GTP (Sigma) and 100 nM Interferon Stimulating DNA (ISD) (Microsynth). Recombinantly expressed purified human cGAS (residues 161-522) was used at 25 nM.
All compounds were prepared as 10 mM stock solutions in DMSO and a 16 pt dilution series in DMSO with a dilution factor of 2.5 was prepared. 1 μL of DMSO dilution series was transferred to 32.3 μL reaction buffer, mixed by pipetting up/down, spun for 1 minute at 3000 rpm and was visually inspected for precipitation. 5 μL of 3-fold enzyme stock solution were transferred to an empty 384-well Black/Clear Flat Bottom Polystyrene NBS (Corning) rows 3-24. Rows 1-2 were filled with assay buffer. Plates were spun 10 seconds at 1000 rpm (164×g). 5 μL of compound intermediate dilution was added and mixed by pipetting up/down to rows 3-24. Rows 1-2 were filled with 3.1% DMSO assay buffer. Plates were spun 10 seconds at 1000 rpm (164×g). 5 μL 3-fold Nucleotide/DNA mix was added to all wells to start the reaction. Plates were spun 10 seconds at 1000 rpm (164×g) and incubated for 4 hour at room temperature (RT) in the dark. 5 μL 4 U/mL PPase (Sigma) were added to all wells. Plates spun 10 seconds at 1000 rpm (164×g). 10 μL BioMol green Solution (Enzo Life Sciences) was added to all wells. Plates spun 10 seconds at 1000 rpm (164×g) and incubated 30 minutes at RT in the dark. Absorbance data was collected 620 nm on an EnVision Multilable Reader (Perkin Elmer) and the following measurement settings were used: excitation filter photometric was 620 nm; excitation from the top; measurement height was 1 mm; number of flashes was 30; number of flashes integrated was 1.
All plates are checked for abnormalities and outliers in the Blank Control (no protein, row 1) and the Neutral Control (no compound, row 2) are excluded using the 3*SD rule. Data was normalized to 0 and 100% by Blank and Neutral Control and each curve was fitted and judged using the 4 parameter logistic equation to determine the IC50 for cGAS inhibition.
Table 2 provides IC50 values (μM ) for cGAS inhibition obtained for particular examples of the present invention as measured by the above-described assay.
For `Cn1cncc1/C(O)=C(\C#N)C(=O)Nc1ccc(C(F)(F)F)cc1` [Example 1, (Z)-2-Cyano-3-hydroxy-3-(1-methyl-1H-imidazol-5-yl)-N-(4-(trifluoromethyl)phenyl)acrylamide], the IC50 was determined as 1850 nM.
For `Cc1oncc1/C(O)=C(\C#N)C(=O)Nc1cccnc1` [Example 2, (Z)-2-cyano-3-hydroxy-3-(5-methylisoxazol-4-yl)-N-(3-pyridyl)prop-2-] the value was 1570 nM; for `Cc1oncc1/C(O)=C(\C#N)C(=O)Nc1ccc2c(c1)CCC2=O` [Example 3, (Z)-2-cyano-3-hydroxy-3-(5-methylisoxazol-4-yl)-N-(1-oxoindan-5-yl)prop-2-enamide], 220 nM.
To `Cn1nncc1/C(O)=C(\C#N)C(=O)Nc1ccc(C(F)(F)F)cc1` [Example 4, (Z)-2-cyano-3-hydroxy-3-(1-methyl-1H-1,2,3-triazol-5-yl)-N-(4-(trifluoromethyl)phenyl) acrylamide] belongs 6310 nM.
With `Cc1oncc1/C(O)=C(\C#N)C(=O)Nc1ccn(C)c(=O)c1` [Example 5, (Z)-2-cyano-3-hydroxy-3-(5-methylisoxazol-4-yl)-N-(1-methyl-2-oxo-4-pyridyl)prop-2-enamide], the half-inhibitory concentration (IC50) worked out at 170 nM.
To `Cc1oncc1/C(O)=C(\C#N)C(=O)Nc1cc[nH]c(=O)c1` [Example 6, (Z)-2-cyano-3-hydroxy-3-(5-methylisoxazol-4-yl)-N-(2-oxo-1H-pyridin-4-yl)prop-2-enamide] belongs 180 nM; to `COc1ccc(NC(=O)/C(C#N)=C(\O)c2cnoc2C)nn1` [Example 7, (Z)-2-cyano-3-hydroxy-N-(6-methoxypyridazin-3-yl)-3-(5-methylisoxazol-4-yl)prop-2-enamide], 1020 nM.
To `COc1ccc(NC(=O)/C(C#N)=C(\O)c2cnoc2C)cn1` [Example 8, (Z)-2-cyano-3-hydroxy-N-(6-methoxy-3-pyridyl)-3-(5-methylisoxazol-4-yl)prop-2-enamide] belongs 1340 nM; to `COC(=O)c1sccc1NC(=O)/C(C#N)=C(\O)c1cnoc1C` [Example 9, methyl (Z)-3-(2-cyano-3-hydroxy-3-(5-methylisoxazol-4-yl)acrylamido) thiophene-2-carboxylate], 1270 nM.
With `CCOC(=O)c1c(C)csc1NC(=O)/C(C#N)=C(\O)c1cnoc1C` [Example 10, ethyl (Z)-2-(2-cyano-3-hydroxy-3-(5-methylisoxazol-4-yl)acrylamido)-4-methylthiophene-3-carboxylate], the IC50 came to 820 nM.
For `Cc1nocc1/C(O)=C(\C#N)C(=O)Nc1ccc(C(F)(F)F)cc1` [Example 11, (Z)-2-cyano-3-hydroxy-3-(3-methylisoxazol-4-yl)-N-(4-(trifluoromethyl)phenyl) acrylamide], the IC50 came to 3990 nM.
For `COC(=O)c1ccc(NC(=O)/C(C#N)=C(\O)c2conc2C)cc1` [Example 12, methyl (Z)-4-(2-cyano-3-hydroxy-3-(3-methylisoxazol-4-yl)acrylamido) benzoate] the value was 1130 nM; for `N#C/C(C(=O)Nc1ccc(C(F)(F)F)cc1)=C(/O)c1cnco1` [Example 13, (Z)-2-cyano-3-hydroxy-3-(oxazol-5-yl)-N-(4-(trifluoromethyl)phenyl) acrylamide], 7190 nM; for `Cc1cnoc1/C(O)=C(\C#N)C(=O)Nc1ccc(C(F)(F)F)cc1` [Example 14, (Z)-2-cyano-3-hydroxy-3-(4-methylisoxazol-5-yl)-N-(4-(trifluoromethyl)phenyl) acrylamide], 8480 nM.
On to `Cc1sncc1/C(O)=C(\C#N)C(=O)Nc1ccc(C(F)(F)F)cc1` [Example 15, (Z)-2-cyano-3-hydroxy-3-(5-methylisothiazol-4-yl)-N-(4-(trifluoromethyl)phenyl) acrylamide], for which the IC50 amounted to 4760 nM.
For `Cc1oncc1/C(O)=C(\C#N)C(=O)Nc1cccc2ccccc12` [Example 16, (Z)-2-cyano-3-hydroxy-3-(5-methylisoxazol-4-yl)-N-(naphthalen-1-yl)acrylamide] the value was 1790 nM.
On to `Cc1oncc1/C(O)=C(\C#N)C(=O)Nc1ccc2ccccc2c1` [Example 17, (Z)-2-cyano-3-hydroxy-3-(5-methylisoxazol-4-yl)-N-(naphthalen-2-yl)acrylamide], for which the IC50 worked out at 1110 nM.
To `Cc1oncc1/C(O)=C(\C#N)C(=O)Nc1ccncc1` [Example 18, (Z)-2-cyano-3-hydroxy-3-(5-methylisoxazol-4-yl)-N-(4-pyridyl)prop-2-enamide] belongs 620 nM.
Regarding `COc1cnc(NC(=O)/C(C#N)=C(\O)c2cnoc2C)cn1` [Example 19, (Z)-2-cyano-3-hydroxy-N-(5-methoxypyrazin-2-yl)-3-(5-methylisoxazol-4-yl)prop-2-enamide], the IC50 came out at 840 nM.
As to `Cc1cccc(C)c1NC(=O)c1ccc(NC(=O)/C(C#N)=C(\O)c2cnoc2C)cn1` [Example 20, (Z)-5-(2-cyano-3-hydroxy-3-(5-methylisoxazol-4-yl)acrylamido)-N-(2,6-dimethylphenyl) picolinamide], the half-maximal inhibitory concentration (IC50) was 500 nM.
`COc1cccc(-c2cc3cc(NC(=O)/C(C#N)=C(\O)c4cnoc4C)ccc3c(=O)[nH]2)c1` [Example 21, (Z)-2-cyano-3-hydroxy-N-(3-(3-methoxyphenyl)-1-oxo-1,2-dihydroisoquinolin-6-yl)-3-(5-methylisoxazol-4-yl)acrylamide]: the IC50 turned out to be 1060 nM.
To `Cc1oncc1/C(O)=C(\C#N)C(=O)Nc1nc2c(c(-c3ccccc3)n1)CCCC2` [Example 22, (Z)-2-cyano-3-hydroxy-3-(5-methylisoxazol-4-yl)-N-(4-phenyl-5,6,7,8-tetrahydroquinazolin-2-yl)acrylamide] belongs 970 nM; to `COc1nc(NC(=O)/C(C#N)=C(\O)c2cnoc2C)nc2c1CCCC2` [Example 23, (Z)-2-cyano-3-hydroxy-N-(4-methoxy-5,6,7,8-tetrahydroquinazolin-2-yl)-3-(5-methylisoxazol-4-yl)acrylamide], 5210 nM.
For `Cc1nc(NC(=O)/C(C#N)=C(\O)c2cnoc2C)nc2c1CS(=O)(=O)CC2` [Example 24, (Z)-2-cyano-3-hydroxy-N-(4-methyl-6,6-dioxido-7,8-dihydro-5H-thiopyrano[4,3-d]pyrimidin-2-yl)-3-(5-methylisoxazol-4-yl)acrylamide], the half-inhibitory concentration (IC50) is 450 nM.

The values are drawn from patent US20230242520A1, “MALONITRILE DERIVATIVES” (Hoffmann-La Roche Inc., priority 2020, published 2023).
